Series [1] is described as follows: in vivo. The note with it: Sprague-Dawley, rat, iv, 0.5 mg/kg.
Series [2] in a line: in vivo. The following applies: Sprague-Dawley, rat, po, 2 mg/kg.

The term clearance denotes the volume of plasma or blood freed of the substance per unit of time. Higher therefore signals a high capacity for elimination. As usually defined, the bioavailability is the share of a dose that reaches the circulation, judged against a reference dose that is usually intravenous. Higher therefore signals good availability.

`CS(=O)(=O)Nc1ccc(-c2csc(NC(=O)N(CCC(c3ccccc3)c3ccccc3)CCN3CCOCC3)n2)cc1` gave a clearance in the series “in vivo [1]” of 63.3 mL/min/kg.
Take `NS(=O)(=O)c1ccc(-c2nsc(NC(=O)N(CCC(c3ccc(F)cc3)c3ccc(F)cc3)CCN3CCOCC3)n2)cc1`: the bioavailability in the series “in vivo [2]” was found to be 39%. Moreover, the clearance in the series “in vivo [1]” is 26.7 mL/min/kg.

The values are drawn from ChEMBL document CHEMBL3091305, “Metabolism-guided discovery of a potent and orally bioavailable urea-based calcimimetic for the treatment of secondary hyperparathyroidism” (Bioorg Med Chem Lett, 2013).
